How the values were obtained:
Assay type in all cases: in vivo
[1] = system: Cabbage Looper (Trichoplusia ni); assay: Bioassay on Cabbage Looper (CL), 128-well diet tray assay; conditions: 168 h, 50 μg/cm^2 on artificial diet, second instar larvae, five to seven days, read-out: CL % Control (or Mortality) rating
How it was run: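 Diet tray, 2nd instar, 1–5 larvae/well; 50 μg/cm^2 compound surface-applied (acetone:water 90:10), dried; 8 wells/treatment; 25° C, 14:10 L:D, 5–7 d; % mortality, mean of 8 wells.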

[2] = system: Yellow Fever Mosquito (Aedes aegypti); conditions: about 1 day-old larvae, 3 days, scored on mortality
Method: Certain molecules disclosed in this document were tested against YFM using procedures described in the following paragraph. In the reporting of the results, the “GPA & YFM Rating Table” was used (See Table Section).
Master plates containing 400 μg of a molecule dissolved in 100 μL of dimethyl sulfoxide (DMSO) (equivalent to a 4000 ppm solution) are used. A master plate of assembled molecules contains 15 μL per well. To this plate, 135 μL of a 90:10 water/acetone mixture is added to each well. A robot (Biomek® NXP Laboratory Automation Workstation) is programmed to dispense 15 μL aspirations from the master plate into an empty 96-well shallow plate (“daughter” plate). There are 6 reps (“daughter” plates) created per master. The created “daughter” plates are then immediately infested with YFM larvae.
The day before plates are to be treated, mosquito eggs are placed in Millipore water containing liver powder to begin hatching (4 g. into 400 mL). After the “daughter” plates are created using the robot, they are infested with 220 μL of the liver powder/larval mosquito mixture (about 1 day-old larvae). After plates are infested with mosquito larvae, a non-evaporative lid is used to cover the plate to reduce drying. Plates are held at room temperature for 3 days prior to grading. After 3 days, each well is observed and scored based on mortality. The results are indicated in the table entitled “Table ABC: Biological Results” (See Table Section).

[3] = system: Green Peach Aphid (Myzus persicae); assay: Bioassay on Green Peach Aphid (GPA), foliar spray on cabbage seedlings; conditions: 72 h, 200 ppm foliar spray on cabbage seedlings, three days, Abbott corrected % control, read-out: GPA % Control (or Mortality) rating
Method: Certain molecules disclosed in this document were tested against GPA using procedures described in the following example. In the reporting of the results, the “GPA & YFM Rating Table” was used (See Table Section).
Cabbage seedlings grown in 3-inch pots, with 2-3 small (3-5 cm) true leaves, were used as test substrate. The seedlings were infested with 20-50 GPA (wingless adult and nymph stages) one day prior to chemical application. Four pots with individual seedlings were used for each treatment. Test molecules (2 mg) were dissolved in 2 mL of acetone/methanol (1:1) solvent, forming stock solutions of 1000 ppm test molecule. The stock solutions were diluted 5× with 0.025% Tween 20 in water to obtain the solution at 200 ppm test molecule. A hand-held aspirator-type sprayer was used for spraying a solution to both sides of […] leaves until runoff. Reference plants (solvent check) were sprayed with the diluent only containing 20% by volume of acetone/methanol (1:1) solvent. Treated plants were held in a holding room for three days at approximately 25° C. and ambient relative humidity (RH) prior to grading. Evaluation was conducted by counting the number of live aphids per plant under a microscope. Percent control was measured using Abbott's correction formula (W. S. Abbott, “A Method of Computing the Effectiveness of an Insecticide” J. Econ. Entomol. 18 (1925), pp. 265-267) as follows. Corrected % Control=100*(X−Y)/X where X=No. of live aphids on solvent check plants and Y=No. of live aphids on treated plants. The results are indicated in the table entitled “Table ABC: Biological Results” (See Table Section).

[4] = system: Beet Armyworm (Spodoptera exigua); assay: Bioassay on Beet Armyworm (BAW), 128-well diet tray assay; conditions: for mortality at 50 µg/cm2: Spodoptera exigua, 168 h, 50 μg/cm^2 on artificial diet, second instar larvae, five to seven days, read-out: BAW % Control (or Mortality) rating

SMILES | mortality at 50 µg/cm2 [1] [%] | YFM % Control (or Mortality) rating [2] | mortality at 200 ppm [3] [%] | mortality at 50 µg/cm2 [4] [%] | BAW (Table CD-1) ([4]; 0.05 μg/cm^2) | BAW (Table CD-1) ([4]; 5.0 μg/cm^2) | BAW (Table CD-1) ([4]; 50 μg/cm^2)
C#CCN(C(=O)c1ccc(/C(F)=C/C(c2cc(Cl)c(Cl)c(Cl)c2)C(F)(F)F)cc1C(F)(F)F)N(C)c1ncccn1 (centres unmarked) [F180, (Z)—N′-Methyl-N-(prop-2-yn-1-yl)-N′-(pyrimidin-2-yl)-4-(1,4,4,4-tetrafluoro-3-(3,4,5-trichlorophenyl)but-1-en-1-yl)-2-(trifluoromethyl)benzohydrazide] | 50 to 100 | A (80-100) | 0 to 80 | 50 to 100 |  |  | 
O=C(NNc1ncccn1)c1ccc(/C(F)=C/C(c2cc(Cl)c(Cl)c(Cl)c2)C(F)(F)F)cc1C(F)(F)F (centres unmarked) [F97, (Z)—N′-(pyrimidin-2-yl)-4-(1,4,4,4-tetrafluoro-3-(3,4,5-trichlorophenyl)but-1-en-1-yl)-2-(trifluoromethyl)benzohydrazide] | 50 to 100 |  | 80 to 100 | 50 to 100 | 100 | 100 | 100
O=C(NNc1ncccn1)c1ccc(/C(F)=C/C(c2cc(Cl)c(F)c(Cl)c2)C(F)(F)F)cc1C(F)(F)F (centres unmarked) [F4, (Z)-4-(3-(3,5-Dichloro-4-fluorophenyl)-1,4,4,4-tetrafluorobut-1-en-1-yl)-N′-(pyrimidin-2-yl)-2-(trifluoromethyl)benzohydraziderazide] | 50 to 100 |  | 0 to 80 | 50 to 100 |  |  | 
CN(NC(=O)c1ccc(/C(F)=C/C(c2cc(Cl)c(Cl)c(Cl)c2)C(F)(F)F)cc1C(F)(F)F)c1ncccn1 (centres unmarked) [F71, (Z)—N′-Methyl-N′-(pyrimidin-2-yl)-4-(1,4,4,4-tetrafluoro-3-(3,4,5-trichlorophenyl)but-1-en-1-yl)-2-(trifluoromethyl)benzohydrazide] | 50 to 100 |  | 80 to 100 | 50 to 100 |  |  | 
O=C(NNc1ncc(Cl)cn1)c1ccc(/C(F)=C/C(c2cc(Cl)c(Cl)c(Cl)c2)C(F)(F)F)cc1C(F)(F)F (centres unmarked) [F63, (Z)—N′-(5-Chloropyrimidin-2-yl)-4-(1,4,4,4-tetrafluoro-3-(3,4,5-trichlorophenyl)but-1-en-1-yl)-2-(trifluoromethyl)benzohydrazide] | 50 to 100 | A (80-100) | 0 to 80 | 50 to 100 |  |  | 
O=C(Nn1ccnc1)c1ccc(/C(F)=C/C(c2cc(Cl)c(Cl)c(Cl)c2)C(F)(F)F)cc1C(F)(F)F (centres unmarked) [F10, (Z)—N-(1H-Imidazol-1-yl)-4-(1,4,4,4-tetrafluoro-3-(3,4,5-trichlorophenyl)but-1-en-1-yl)-2-(trifluoromethyl)benzamide] | 50 to 100 |  | 0 to 80 | 50 to 100 |  |  | 
